Assay results as given in paper PMC8744835, “Sterically Hindered Quaternary Phosphonium Salts (QPSs): Antimicrobial Activity and Hemolytic and Cytotoxic Properties” (International Journal of Molecular Sciences, 2021).

Key:
[1] = tested on: Enterococcus faecalis ATCC 2921; test: Antimicrobial activity, serial dilution technique in Mueller–Hinton Broth 2; type: cell-based; settings: average of three ± SD, - means non-active
Outline: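 Antibacterial activity against Enterococcus faecalis ATCC 2921 was assessed by serial dilution in Mueller–Hinton Broth 2 with a bacterial load of 3.0 × 10^5 cfu/mL. Cultures were incubated at 37 °C, with growth recorded every 24 h for 5 days, and the experiment was performed three times.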

[2] = tested on: Staphylococcus aureus ATCC 6538P FDA 209P; test: as above; type: cell-based; settings: average of three ± SD, - means non-active
Outline: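 Using a broth serial dilution method in Mueller–Hinton Broth 2, S. aureus ATCC 6538P FDA 209P (3.0 × 10^5 cfu/mL) was exposed to compounds at 37 °C and observed daily over 5 days. MIC was the lowest concentration preventing growth; bacteriostatic absence of growth was also noted, with three replicate experiments.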

[3] = tested on: Escherichia coli ATCC 25922; test: as above; type: cell-based; settings: average of three ± SD, - means non-active
Outline: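 Growth inhibition is scored in Mueller–Hinton Broth 2 dilution series seeded with 3.0 × 10^5 cfu/mL and held at 37 °C for up to 5 days. Values reported are MICs, the lowest concentration without growth.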

[4] = tested on: Bacillus cereus ATCC 10702 NCTC 8035; test: as above; type: cell-based; settings: average of three ± SD, - means non-active
Outline: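 Compounds were serially diluted in Mueller–Hinton Broth 2 and inoculated with the Gram-positive strain Bacillus cereus ATCC 10702 NCTC 8035 at 3.0 × 10^5 cfu/mL, then incubated at 37 °C. Observations were taken every 24 h over 5 days in three repeat experiments. The MIC was the lowest concentration that stopped growth, with bacteriostatic absence of growth also noted.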

human erythrocytes = test: Hemolytic activity; type: cell-based; settings: red blood cells
Source text: An important characteristic when assessing the biological activity of new chemical compounds is their cytotoxic effect on eukaryotic cells. The ability of an investigated compound to cause the destruction of human erythrocytes illustrates its toxic effect on the internal environment. The hemolysis assay is a simple screening test that can help in the study of cytotoxicity in more complex models. Cell lines obtained from various human organs and tissues that allow for adequate estimation of the effects of new potential drugs on cell metabolism can serve as experimental models.
The hemolytic activity of the QPSs was estimated by comparing the optical density of a solution containing the test compound with that of blood at 100% hemolysis. The experiments were carried out as previously described.

Chang liver cell line = test: Cytotoxicity assay (Cytell Cell Imaging, DAPI/propidium iodide); type: cell-based, human
[5] = tested on: Escherichia coli ATCC 25922; test: Antimicrobial activity, serial dilution technique in Mueller–Hinton Broth 2; type: cell-based; settings: average of three ± SD, - means non-active; remark: listed apart in the source
[6] = tested on: methicillin-resistant S. aureus MRSA-2; test: as above; type: cell-based, Staphylococcus aureus; settings: - means non-active
Outline: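 Antimicrobial activity against methicillin-susceptible Staphylococcus aureus MRSA-2, a beta-lactam-resistant clinical isolate from a sinusitis patient at the Republican Clinical Hospital (Kazan), was assessed by serial dilution in Mueller–Hinton Broth 2. The inoculum was 3.0 × 10^5 cfu/mL. Cultures were incubated at 37 °C and read every 24 h for 5 days, in three repeat experiments.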

[7] = tested on: methicillin-resistant S. aureus MRSA-1; test: as above; type: cell-based, Staphylococcus aureus; settings: - means non-active
Outline: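 Antimicrobial activity against methicillin-susceptible Staphylococcus aureus MRSA-1, a hospital isolate from a chronic tonsillitis patient that is resistant to fluoroquinolones and beta-lactams, was determined by serial dilution in Mueller–Hinton Broth 2. The bacterial load was 3.0 × 10^5 cfu/mL, incubation was at 37 °C, and growth was recorded every 24 h for 5 days.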

[8] = tested on: Trichophyton mentagrophytes var. gypseum 1773; test: Fungicidal activity, serial dilution technique; type: cell-based; settings: Tm, average of three ± SD, - means non-active
Outline: (§1)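 Broth serial dilution in Mueller–Hinton Broth 2 at 3.0 × 10^5 cfu/mL, incubated at 37 °C with growth scored every 24 h for 5 days. MIC taken as lowest concentration inhibiting growth; three repeats.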

[9] = tested on: Candida albicans ATCC 10231; test: Fungicidal activity, serial dilution technique; type: cell-based; settings: average of three ± SD, - means non-active
Outline: as §1

CCCCCCCCCC[P+](C(C)(C)C)(C(C)(C)C)C(C)(C)C [Compound 10a]
MBC ([1]; Enterococcus faecalis, ATCC2921, Ef, read-out: Minimum Bactericidal and Fungicidal Concentration (MBC, MFC), Ef): 7.8 ± 0.6 µg/mL
MIC ([1]; Enterococcus faecalis, ATCC2921, Ef, read-out: Minimum Inhibitory Concentration (MIC), Ef): 7.8 ± 0.6 µg/mL
Minimum Bactericidal and Fungicidal Concentration (MBC, MFC), Sa [2]: 1.9 ± 0.1 µg/mL
Minimum Inhibitory Concentration (MIC), Sa [2]: 1.9 ± 0.1 µg/mL
MIC ([3]; Escherichia coli, ATCC25922, Ec, read-out: Minimum Inhibitory Concentration (MIC), Ec): 31.3 ± 2.7 µg/mL
MIC ([4]; Bacillus cereus, Bc, read-out: Minimum Inhibitory Concentration (MIC), Bc): 3.9 ± 0.2 µg/mL
Minimum Bactericidal and Fungicidal Concentration (MBC, MFC), Bc [4]: 31.3 ± 2.5 µg/mL
HC50 (concentration that causes 50% hemolysis of erythrocytes) (human erythrocytes): > 125 µg/mL
IC50 (Chang liver cell line; Homo sapiens, Chang liver, read-out: IC50 (concentration that causes the death of 50% of the cells), Chang liver cells): 66 µg/mL
MBC ([5]; Escherichia coli, ATCC25922, Ec, read-out: Minimum Bactericidal and Fungicidal Concentration (MBC, MFC), Ec): 31.3 ± 2.6 µg/mL
MIC ([6]; Staphylococcus aureus, MRSA, MRSA-2 (resistant to beta-lactams), read-out: Minimum Inhibitory Concentration (MIC), MRSA-2): 3.9 ± 0.2 µg/mL
MBC ([6]; Staphylococcus aureus, MRSA, MRSA-2, read-out: Minimum Bactericidal and Fungicidal Concentration (MBC, MFC), MRSA-2): 3.9 ± 0.2 µg/mL
MIC ([7]; Staphylococcus aureus, MRSA, MRSA-1 (resistant to fluoroquinolones and beta-lactams), read-out: Minimum Inhibitory Concentration (MIC), MRSA-1): 1.9 ± 0.1 µg/mL
MBC ([7]; Staphylococcus aureus, MRSA, MRSA-1, read-out: Minimum Bactericidal and Fungicidal Concentration (MBC, MFC), MRSA-1): 15.6 ± 1.2 µg/mL
MBC ([8]; Trichophyton mentagrophytes, read-out: Minimum Bactericidal and Fungicidal Concentration (MBC, MFC), Tm): 125 ± 11 µg/mL
MIC ([8]; Trichophyton mentagrophytes, read-out: Minimum Inhibitory Concentration (MIC), Tm): 125 ± 11 µg/mL
MBC ([9]; Candida albicans, ATCC10231, Ca, read-out: Minimum Bactericidal and Fungicidal Concentration (MBC, MFC), Ca): 31.3 ± 2.3 µg/mL
MIC ([9]; Candida albicans, ATCC10231, Ca, read-out: Minimum Inhibitory Concentration (MIC), Ca): 31.3 ± 2.6 µg/mL

CCCCCCCCCC[P+](C(C)(C)C)(C(C)(C)C)C(C)(C)C [Compound 10b]
Minimum Bactericidal and Fungicidal Concentration (MBC, MFC), Ef ([1]; Ef): 15.6 ± 1.2 µg/mL
Minimum Inhibitory Concentration (MIC), Ef ([1]; Ef): 15.6 ± 1.3 µg/mL
Minimum Bactericidal and Fungicidal Concentration (MBC, MFC), Sa [2]: 3.9 ± 0.2 µg/mL
Minimum Inhibitory Concentration (MIC), Sa [2]: 3.9 ± 0.2 µg/mL
Minimum Inhibitory Concentration (MIC), Ec ([3]; Ec): 62.5 ± 5.4 µg/mL
Minimum Bactericidal and Fungicidal Concentration (MBC, MFC), Bc [4]: 125 ± 9 µg/mL
Minimum Inhibitory Concentration (MIC), Bc [4]: 7.8 ± 0.6 µg/mL
HC50 (concentration that causes 50% hemolysis of erythrocytes) (human erythrocytes): > 125 µg/mL
IC50 (concentration that causes the death of 50% of the cells) (Chang liver cell line; Chang liver cells): 71 µg/mL
Minimum Bactericidal and Fungicidal Concentration (MBC, MFC), Ec ([5]; Ec): 62.5 ± 5.5 µg/mL
Minimum Inhibitory Concentration (MIC), MRSA-2 ([6]; MRSA-2 (resistant to beta-lactams)): 3.9 ± 0.2 µg/mL
Minimum Bactericidal and Fungicidal Concentration (MBC, MFC), MRSA-2 ([6]; MRSA-2): 7.8 ± 0.6 µg/mL
Minimum Inhibitory Concentration (MIC), MRSA-1 ([7]; MRSA-1 (resistant to fluoroquinolones and beta-lactams)): 1.9 ± 0.1 µg/mL
Minimum Bactericidal and Fungicidal Concentration (MBC, MFC), MRSA-1 ([7]; MRSA-1): 15.6 ± 1.3 µg/mL
Minimum Bactericidal and Fungicidal Concentration (MBC, MFC), Tm [8]: 125 ± 10 µg/mL
Minimum Inhibitory Concentration (MIC), Tm [8]: 125 ± 10 µg/mL
Minimum Bactericidal and Fungicidal Concentration (MBC, MFC), Ca ([9]; Ca): 31.3 ± 2.2 µg/mL
Minimum Inhibitory Concentration (MIC), Ca ([9]; Ca): 31.3 ± 2.4 µg/mL
